# Counter-ions that a name gives are not always drawn.
# Target: T1, human recombinant DPIV enzyme (Homo sapiens, UniProt P27487)
# T1 construct: Secreted DPIV (lacking membrane anchor) was enriched from HEK293 cell culture supernatant; made in house; host or cells: HEK293
# Assay: Human recombinant DPIV activity assay (fluorometric end point, Gly-Pro-AMC substrate)
# Type: biochemical
# Settings: enriched human recombinant DPIV, Gly-Pro-AMC 0.02 mM, 12 points concentration response curve, duplicates
# Experimental: Human Recombinant DPIV Activity Assay
# The DPIV assay used was a fluorometric end point assay (excitation 355 nm; emission 460 nm) using enriched human recombinant DPIV enzyme (21.3 μU/μl), and Gly-Pro-AMC (Bachem I-1225) as substrate (0.02 mM). Secreted DPIV (lacking membrane anchor) was enriched from HEK293 cell culture supernatant by ultrafiltration, ultra-centrifugation, and size-exclusion chromatography. IC50 values of the compounds were calculated based on a 12 points concentration response curve. Each concentration was measured as duplicates. The assay was validated by plate variability and conformity, inter-plate variability, signal window, and minimum significant ration of IC50. A MSR was calculated based on a test/retest analysis and a retrospective analysis. The MSR value is 1.8.
# T1 sequence (P27487 29-766 limits assumed): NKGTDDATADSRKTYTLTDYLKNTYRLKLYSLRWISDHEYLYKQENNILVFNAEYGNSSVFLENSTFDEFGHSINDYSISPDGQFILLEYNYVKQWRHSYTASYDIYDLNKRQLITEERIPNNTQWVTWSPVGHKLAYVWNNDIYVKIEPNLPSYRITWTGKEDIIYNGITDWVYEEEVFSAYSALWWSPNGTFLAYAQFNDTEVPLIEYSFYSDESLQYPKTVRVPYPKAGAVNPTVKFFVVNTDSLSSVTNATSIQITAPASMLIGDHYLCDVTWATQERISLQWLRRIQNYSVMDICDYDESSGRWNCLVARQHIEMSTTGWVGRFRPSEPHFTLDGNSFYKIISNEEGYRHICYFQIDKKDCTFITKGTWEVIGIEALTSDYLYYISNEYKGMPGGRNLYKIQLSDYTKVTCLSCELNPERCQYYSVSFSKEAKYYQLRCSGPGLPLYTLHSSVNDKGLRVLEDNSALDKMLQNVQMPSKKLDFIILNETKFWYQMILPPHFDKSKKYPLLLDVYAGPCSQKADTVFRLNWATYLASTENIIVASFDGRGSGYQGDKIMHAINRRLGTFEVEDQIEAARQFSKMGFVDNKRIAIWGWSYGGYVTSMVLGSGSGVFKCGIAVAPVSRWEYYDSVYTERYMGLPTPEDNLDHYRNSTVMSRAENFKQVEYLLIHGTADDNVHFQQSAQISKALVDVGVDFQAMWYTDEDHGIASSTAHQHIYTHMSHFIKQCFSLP
row,SMILES,IC50 [µM]
1,"N[C@H](Cc1ccccc1)[C@@H](O)CN1CCCC(c2ccccc2)C1 (stereo partly drawn) [Example 6, (2S,3R)-3-Amino-4-phenyl-1-([3R,S]-3-phenyl-piperidin-1-yl)-butan-2-ol Dihydrochloride]",2.73
2,"N[C@H](Cc1ccccc1)[C@@H](O)Cn1cccn1 [Example 13, (2S,3R)-3-Amino-4-phenyl-1-pyrazol-1-yl-butan-2-ol Hydrochloride]",2.99
3,"N[C@H](Cc1ccccc1)[C@@H](O)Cn1cnc2ccccc21 [Example 15, (2S,3R)-3-Amino-1-benzimidazol-1-yl-4-phenyl-butan-2-ol Hydrochloride]",4.33
4,"CN(C[C@H](O)[C@H](N)Cc1ccccc1)S(C)(=O)=O [Example 21, N-[(2S,3R)-3-Amino-2-hydroxy-4-phenyl-butyl]-N-methyl-methanesulfonamide Hydrochloride]",9.76

# Reference: patent US8106090B2, “1-amino linked compounds” (Eli Lilly and Company, priority 2005, dated 2012)
